In patent US20170051149A1, “AZOARYLS AS REVERSIBLY MODULATABLE TUBULIN INHIBITORS” (ECOLE NORMALE SUPERIEURE DE LYON, priority 2014, published 2017):

Tests used:
Type in all cases: cell-based
[1] = tested on: HeLa cells; assay: MTT assay; details: 48 h
Text: The cytotoxic properties of I.1 were subsequently confirmed with another method, using the quantification of mitochondrial dehydrogenase activity of cells as determined by the level of 3-(4.5-dimethylthiazol-2-yl)-2.5-diphenyl tetrazolium bromide (MTT) reduction to its purple formazan, according to standard protocol^[30]. […] Cells were kept in the dark, or exposed to a pulsed toxic regime of 390 nm only, or exposed to a strong rescue protocol with pulses of 390 nm then 505 nm light. Pulses of light were applied every 30 s; 390 nm light pulses lasted 150 ms every 30 s, while the 505 nm light pulses were applied for 500 ms; in the strong rescue regime, the 505 nm pulse was synchronised so that it began immediately after the 390 nm pulse ended.
Cellular viability was measured 48 h later, namely, cells were incubated with MTT for three hours and after dissolution of the formazan crystals with DMSO, absorbance at 550 nm was measured using a FLUOstar Omega microplate reader. Results are shown in Table 5 below and are expressed as a fold growth relative to the control growth of the cells treated only with a co-solvent (0.5% MeCN) and represent mean and standard deviation of quadruplicates of the optical density values, which are proportional to the cell number.

[2] = tested on: HepG2 cells; assay: cell cycle analysis by PI flow cytometry; details: 48 h
Method: The effect of compound I.1 on cell cycle progression was assessed by flow cytometry. Briefly, following the application of compound I.1 and exposure to the indicated light regime, cells were harvested on ice and incubated in a hypotonic buffer [0.1% sodium citrate, 0.1% Triton X-100 and 50 μg/mL propidium iodide (PI)] for 30 min at 4° C. Following the PI staining cells were analysed by flow cytometry using FACSCalibur flow cytometer (Becton Dickinson, Heidelberg, Germany) and Cell Quest Pro Software (Becton Dickinson). Subsequently the cell cycle analysis was performed using the FlowJo software (Tree Star Inc., Ashland, Oreg., USA).

[3] = tested on: HeLa; assay: membrane permeability, PI uptake in nonpermeabilized cells; details: 70 h
Method: (§1) Membrane integrity was assessed as a marker of cellular viability, via examining the uptake of propidium iodide (PI) in nonpermeabilized cells according to a standard protocol. Namely, cells were harvested and incubated with 5 μg/mL PI in PBS containing 2% FCS (foetal calf serum), and immediately analysed by flow cytometry using a FACSCalibur flow cytometer.

[4] = tested on: Jurkat cells; assay: as above; details: 48 h
Method: as §1

[5] = tested on: MDA-MB-231; assay: as above; details: 70 h
Method: as §1

[6] = 200 nM, 390 nm (1 s every 15 min)
[7] = 600 nM, 390 nm (1 s every 15 min)
[8] = 1.5 μM, 390 nm (1 s every 15 min)
[9] = 5 μM, 390 nm (1 s every 15 min)

What does the source list for COc1ccc(N=Nc2cc(OC)c(OC)c(OC)c2)cc1O [I.1, 2-methoxy-5-((3,4,5-trimethoxyphenyl)diazenyl)phenol]?
mean fold growth ([1]; 10 nM, 390 nm (150 ms every 30 s)): 0.95 fold; mean fold growth ([1]; 10 nM, Dark): 0.93 fold; mean fold growth ([1]; 20 nM, 390 nm (150 ms every 30 s)): 0.96 fold; mean fold growth ([1]; 20 nM, Dark): 1.02 fold; mean fold growth ([1]; 50 nM, 390 nm (150 ms every 30 s)): 0.96 fold; mean fold growth ([1]; 50 nM, Dark): 1.01 fold; mean fold growth ([1]; 100 nM, 390 nm (150 ms every 30 s)): 0.93 fold; mean fold growth ([1]; 100 nM, dark): 1.01 fold; mean fold growth ([1]; 400 nM, 390 nm (150 ms every 30 s)): 0.28 fold; mean fold growth ([1]; 400 nM, dark): 1.00 fold; mean fold growth ([1]; 400 nM, rescue: 390 nm (150 ms) then 505 nm (500 ms) every 30 s): 0.46 fold; mean fold growth ([1]; 600 nM, 390 nm (150 ms every 30 s)): 0.21 fold; mean fold growth ([1]; 600 nM, dark): 1.05 fold; mean fold growth ([1]; 800 nM, 390 nm (150 ms every 30 s)): 0.17 fold; mean fold growth ([1]; 800 nM, Dark): 0.98 fold; mean fold growth ([1]; 1 μM, 390 nm (150 ms every 30 s)): 0.18 fold; mean fold growth ([1]; 1 μM, dark): 0.93 fold; mean fold growth ([1]; 2 μM, 390 nm (150 ms every 30 s)): 0.21 fold; mean fold growth ([1]; 2 μM, Dark): 0.98 fold; toxicity ([1]; in the dark, 10 nM-2 μM): no toxicity; concentration inducing severe cytotoxicity ([1]; upon exposure to the light (390 nm)): ≥ 400 nM; mean % G2/M phase ([2]; 100 nM, 390 nm (250 ms every 15 s)): 7.8%; mean % G2/M phase ([2]; 100 nM, dark): 10.0%; mean % G2/M phase ([2]; 600 nM, 390 nm (250 ms every 15 s)): 9.4%; mean % G2/M phase ([2]; 600 nM, dark): 8.6%; mean % G2/M phase ([2]; 1 μM, 390 nm (250 ms every 15 s)): 10.7%; mean % G2/M phase ([2]; 1 μM, dark): 10.1%; mean % G2/M phase ([2]; 3 μM, 390 nm (250 ms every 15 s)): 9.3%; mean % G2/M phase ([2]; 3 μM, dark): 11.2%; mean % G2/M phase ([2]; 10 μM, 390 nm (250 ms every 15 s)): 42.3%; mean % G2/M phase ([2]; 10 μM, dark): 11.7%; mean % cells PI+ [3, 6]: 4.5%; mean % cells PI+ ([3]; 200 nM, dark): 4.5%; mean % cells PI+ [3, 7]: 8.2%; mean % cells PI+ ([3]; 600 nM, dark): 4.3%; mean % cells PI+ [3, 8]: 46.1%; mean % cells PI+ ([3]; 1.5 μM, dark): 4.2%; mean % cells PI+ [3, 9]: 73.0%; mean % cells PI+ ([3]; 5 μM, dark): 5.1%; mean % cells PI+ ([4]; 50 nM, 390 nm (350 ms every 5 min)): 1.3%; mean % cells PI+ ([4]; 50 nM, Dark): 1.6%; mean % cells PI+ ([4]; 100 nM, 390 nm (350 ms every 5 min)): 2.3%; mean % cells PI+ ([4]; 100 nM, dark): 2.2%; mean % cells PI+ ([4]; 200 nM, 390 nm (350 ms every 5 min)): 3.4%; mean % cells PI+ ([4]; 200 nM, dark): 2.3%; mean % cells PI+ ([4]; 400 nM, 390 nm (350 ms every 5 min)): 6.3%; mean % cells PI+ ([4]; 400 nM, dark): 2.3%; mean % cells PI+ ([4]; 600 nM, 390 nm (350 ms every 5 min)): 8.1%; mean % cells PI+ ([4]; 600 nM, dark): 2.8%; mean % cells PI+ [5, 6]: 4.4%; mean % cells PI+ ([5]; 200 nM, dark): 5.0%; mean % cells PI+ [5, 7]: 8.2%; mean % cells PI+ ([5]; 600 nM, dark): 4.6%; mean % cells PI+ [5, 8]: 24.1%; mean % cells PI+ ([5]; 1.5 μM, dark): 4.3%; mean % cells PI+ [5, 9]: 47.2%; mean % cells PI+ ([5]; 5 μM, dark): 5.0%
